Experimental data: US20130338106A1, “COMPOUNDS INHIBITING LEUCINE-RICH REPEAT KINASE ENZYME ACTIVITY” (priority 2011, published 2013)

How the values were obtained:
Type in all cases: biochemical
Details in all cases: tested at 10 uM, read-out: percent inhibition of the kinase activity
ABL Q252H = molecular target: T1, ABL Q252H (Homo sapiens, UniProt P00519, Q252H); test: ProfilerPro Kinase Selectivity, ABL Q252H
T1 construct: purchased Caliper LifeSciences
Experimental: (§1) Kinome selectivity profiling was performed using two example compounds according to the manufacturer's instructions using Caliper LifeSciences' ProfilerPro Kinase Selectivity Assay Kits. Compounds prepared in Examples 1 and 7 were tested at 10 uM and data were recorded using the Caliper LabChip® EZ Reader™. Each compounds' percent inhibition of the kinase activity measured in this manner is reported in the following lists.

GCK = molecular target: T2, GCK (Homo sapiens, UniProt Q12851); test: ProfilerPro Kinase Selectivity, GCK
T2 construct: purchased Caliper LifeSciences
Experimental: as §1

ABL1 G250E = molecular target: T3, ABL1 G250E (Homo sapiens, UniProt P00519, G250E); test: ProfilerPro Kinase Selectivity, ABL1 G250E
T3 construct: purchased Caliper LifeSciences
Experimental: as §1

PRKCB1 = molecular target: T4, PRKCB1 (Homo sapiens, UniProt P05771); test: ProfilerPro Kinase Selectivity, PRKCB1
T4 construct: purchased Caliper LifeSciences
Experimental: as §1

PKD1 = molecular target: T5, PKD1 (Homo sapiens, UniProt Q15139); test: ProfilerPro Kinase Selectivity, PKD1
T5 construct: purchased Caliper LifeSciences
T5 sequence (Q15139 whole entry): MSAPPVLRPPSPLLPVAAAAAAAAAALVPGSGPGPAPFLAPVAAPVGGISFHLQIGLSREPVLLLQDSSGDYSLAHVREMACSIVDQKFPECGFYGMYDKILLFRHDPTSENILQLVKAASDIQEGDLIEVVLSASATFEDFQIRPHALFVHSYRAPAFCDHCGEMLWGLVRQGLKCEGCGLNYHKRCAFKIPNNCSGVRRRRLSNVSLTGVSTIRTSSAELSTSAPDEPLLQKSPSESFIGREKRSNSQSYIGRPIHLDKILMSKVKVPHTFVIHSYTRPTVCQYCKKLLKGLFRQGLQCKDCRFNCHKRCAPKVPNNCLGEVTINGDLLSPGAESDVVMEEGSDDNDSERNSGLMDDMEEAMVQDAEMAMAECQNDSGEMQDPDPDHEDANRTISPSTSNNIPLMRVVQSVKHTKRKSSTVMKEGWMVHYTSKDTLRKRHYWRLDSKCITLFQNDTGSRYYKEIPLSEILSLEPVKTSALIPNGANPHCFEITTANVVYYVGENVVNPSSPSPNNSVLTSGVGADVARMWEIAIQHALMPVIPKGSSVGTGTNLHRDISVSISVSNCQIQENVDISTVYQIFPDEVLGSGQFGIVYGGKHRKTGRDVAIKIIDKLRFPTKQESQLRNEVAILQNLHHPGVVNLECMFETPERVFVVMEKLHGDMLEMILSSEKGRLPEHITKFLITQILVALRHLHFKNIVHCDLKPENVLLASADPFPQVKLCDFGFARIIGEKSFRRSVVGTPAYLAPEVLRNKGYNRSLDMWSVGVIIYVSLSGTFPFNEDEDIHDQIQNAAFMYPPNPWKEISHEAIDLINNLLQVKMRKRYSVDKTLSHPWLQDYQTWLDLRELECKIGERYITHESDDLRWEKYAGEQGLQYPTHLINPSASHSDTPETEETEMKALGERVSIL
Experimental: as §1

FGFR1 = molecular target: T6, FGFR1 (Homo sapiens, UniProt P11362); test: ProfilerPro Kinase Selectivity, FGFR1
T6 construct: purchased Caliper LifeSciences
Experimental: as §1

EGFR T790M = molecular target: T7, EGFR T790M (Homo sapiens, UniProt P00533, T790M); test: ProfilerPro Kinase Selectivity, EGFR T790M
T7 construct: purchased Caliper LifeSciences
Experimental: as §1

CLK2 = molecular target: T8, CLK2 (Homo sapiens, UniProt P49760); test: ProfilerPro Kinase Selectivity, CLK2
T8 construct: purchased Caliper LifeSciences
Experimental: as §1

DYRK4 = molecular target: T9, DYRK4 (Homo sapiens, UniProt Q9NR20); test: ProfilerPro Kinase Selectivity, DYRK4
T9 construct: purchased Caliper LifeSciences
Experimental: as §1

PAK4 = molecular target: T10, PAK4 (Homo sapiens, UniProt O96013); test: ProfilerPro Kinase Selectivity, PAK4
T10 construct: purchased Caliper LifeSciences
T10 sequence (O96013 whole entry, species assumed): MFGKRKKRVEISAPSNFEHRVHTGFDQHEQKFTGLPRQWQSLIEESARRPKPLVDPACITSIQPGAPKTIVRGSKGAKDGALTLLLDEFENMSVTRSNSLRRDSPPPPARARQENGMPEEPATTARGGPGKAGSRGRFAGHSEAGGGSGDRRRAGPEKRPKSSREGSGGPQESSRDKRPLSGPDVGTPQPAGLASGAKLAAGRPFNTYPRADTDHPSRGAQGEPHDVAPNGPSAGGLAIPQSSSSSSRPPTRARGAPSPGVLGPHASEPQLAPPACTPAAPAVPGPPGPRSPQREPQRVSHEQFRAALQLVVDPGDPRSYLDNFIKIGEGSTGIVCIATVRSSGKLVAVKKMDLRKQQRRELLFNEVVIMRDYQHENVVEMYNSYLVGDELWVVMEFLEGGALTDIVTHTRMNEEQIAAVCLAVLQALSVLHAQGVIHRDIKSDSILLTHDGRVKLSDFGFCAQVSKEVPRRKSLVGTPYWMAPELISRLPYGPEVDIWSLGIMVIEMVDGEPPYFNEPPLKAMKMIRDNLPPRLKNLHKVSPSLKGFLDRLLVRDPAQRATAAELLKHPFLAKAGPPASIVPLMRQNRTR
Experimental: as §1

PRKX = molecular target: T11, PRKX (Homo sapiens, UniProt P51817); test: ProfilerPro Kinase Selectivity, PRKX
T11 construct: purchased Caliper LifeSciences
Experimental: as §1

CAMK4 = molecular target: T12, CAMK4 (Homo sapiens, UniProt Q16566); test: ProfilerPro Kinase Selectivity, CAMK4
T12 construct: purchased Caliper LifeSciences
T12 sequence (Q16566 whole entry, species assumed): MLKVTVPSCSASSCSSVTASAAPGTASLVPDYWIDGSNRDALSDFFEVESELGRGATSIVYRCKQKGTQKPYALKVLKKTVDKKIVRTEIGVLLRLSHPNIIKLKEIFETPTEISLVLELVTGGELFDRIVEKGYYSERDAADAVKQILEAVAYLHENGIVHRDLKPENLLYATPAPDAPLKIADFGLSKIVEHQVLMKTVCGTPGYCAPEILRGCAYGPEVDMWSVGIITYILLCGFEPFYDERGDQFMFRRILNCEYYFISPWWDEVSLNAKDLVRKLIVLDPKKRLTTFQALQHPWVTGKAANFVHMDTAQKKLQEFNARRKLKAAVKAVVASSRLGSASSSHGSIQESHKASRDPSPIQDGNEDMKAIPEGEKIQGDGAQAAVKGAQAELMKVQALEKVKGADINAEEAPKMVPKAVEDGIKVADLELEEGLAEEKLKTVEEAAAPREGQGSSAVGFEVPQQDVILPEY
Experimental: as §1

MAPKAPK2 = molecular target: T13, MAPKAPK2 (Homo sapiens, UniProt P49137); test: ProfilerPro Kinase Selectivity, MAPKAPK2
T13 construct: purchased Caliper LifeSciences
T13 sequence (P49137 whole entry, species assumed): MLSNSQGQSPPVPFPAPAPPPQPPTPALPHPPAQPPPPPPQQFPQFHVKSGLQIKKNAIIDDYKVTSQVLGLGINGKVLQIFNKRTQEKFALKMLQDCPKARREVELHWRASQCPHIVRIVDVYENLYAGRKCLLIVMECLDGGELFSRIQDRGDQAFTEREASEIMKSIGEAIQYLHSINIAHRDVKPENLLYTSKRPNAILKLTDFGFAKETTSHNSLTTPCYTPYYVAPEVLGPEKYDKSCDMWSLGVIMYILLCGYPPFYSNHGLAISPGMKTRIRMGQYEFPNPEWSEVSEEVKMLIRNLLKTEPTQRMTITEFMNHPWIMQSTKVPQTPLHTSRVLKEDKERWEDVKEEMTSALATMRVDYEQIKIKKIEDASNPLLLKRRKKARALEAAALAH
Experimental: as §1

TRKC = molecular target: T14, TRKC (Homo sapiens, UniProt Q16288); test: ProfilerPro Kinase Selectivity, TRKC
T14 construct: purchased Caliper LifeSciences
T14 sequence (Q16288 32-839, species assumed): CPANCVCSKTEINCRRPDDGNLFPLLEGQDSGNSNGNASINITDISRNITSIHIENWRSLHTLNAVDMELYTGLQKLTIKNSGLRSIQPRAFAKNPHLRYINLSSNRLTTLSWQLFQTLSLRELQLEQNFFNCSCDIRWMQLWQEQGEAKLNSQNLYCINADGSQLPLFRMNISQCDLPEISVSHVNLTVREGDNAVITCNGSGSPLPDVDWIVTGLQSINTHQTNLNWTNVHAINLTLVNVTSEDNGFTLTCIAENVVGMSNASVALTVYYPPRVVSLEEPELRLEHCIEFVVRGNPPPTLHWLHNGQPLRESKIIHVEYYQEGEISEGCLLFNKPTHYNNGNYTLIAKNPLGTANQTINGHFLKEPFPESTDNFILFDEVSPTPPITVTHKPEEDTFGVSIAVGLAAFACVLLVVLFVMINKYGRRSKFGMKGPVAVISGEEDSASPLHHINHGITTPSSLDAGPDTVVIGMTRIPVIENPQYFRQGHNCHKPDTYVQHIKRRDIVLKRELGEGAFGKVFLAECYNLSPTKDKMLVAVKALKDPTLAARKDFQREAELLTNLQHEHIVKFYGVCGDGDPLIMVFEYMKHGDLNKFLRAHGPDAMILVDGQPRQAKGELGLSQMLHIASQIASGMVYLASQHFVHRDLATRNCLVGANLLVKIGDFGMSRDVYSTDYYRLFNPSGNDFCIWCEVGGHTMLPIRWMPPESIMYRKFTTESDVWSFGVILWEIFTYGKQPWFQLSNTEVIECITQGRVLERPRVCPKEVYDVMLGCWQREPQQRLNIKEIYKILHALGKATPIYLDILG
Experimental: as §1

HCK = molecular target: T15, HCK (Homo sapiens, UniProt P08631); test: ProfilerPro Kinase Selectivity, HCK
T15 construct: purchased Caliper LifeSciences
T15 sequence (P08631 whole entry, species assumed): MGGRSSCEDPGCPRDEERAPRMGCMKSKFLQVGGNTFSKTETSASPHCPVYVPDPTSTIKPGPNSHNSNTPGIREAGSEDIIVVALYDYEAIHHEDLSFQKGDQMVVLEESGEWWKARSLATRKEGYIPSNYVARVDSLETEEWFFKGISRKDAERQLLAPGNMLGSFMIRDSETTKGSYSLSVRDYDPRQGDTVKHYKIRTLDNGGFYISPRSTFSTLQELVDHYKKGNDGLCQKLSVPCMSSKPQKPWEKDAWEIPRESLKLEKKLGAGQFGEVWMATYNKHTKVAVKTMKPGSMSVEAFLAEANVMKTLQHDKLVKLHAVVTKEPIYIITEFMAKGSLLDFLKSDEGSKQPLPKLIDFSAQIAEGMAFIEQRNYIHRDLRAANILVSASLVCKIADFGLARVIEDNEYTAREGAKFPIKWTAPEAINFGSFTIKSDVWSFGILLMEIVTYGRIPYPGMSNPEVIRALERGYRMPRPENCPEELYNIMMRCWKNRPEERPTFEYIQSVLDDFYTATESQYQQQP
Experimental: as §1

RSK3 = molecular target: T16, RSK3 (Homo sapiens, UniProt Q15349); test: ProfilerPro Kinase Selectivity, RSK3
T16 construct: purchased Caliper LifeSciences
T16 sequence (Q15349 whole entry, species assumed): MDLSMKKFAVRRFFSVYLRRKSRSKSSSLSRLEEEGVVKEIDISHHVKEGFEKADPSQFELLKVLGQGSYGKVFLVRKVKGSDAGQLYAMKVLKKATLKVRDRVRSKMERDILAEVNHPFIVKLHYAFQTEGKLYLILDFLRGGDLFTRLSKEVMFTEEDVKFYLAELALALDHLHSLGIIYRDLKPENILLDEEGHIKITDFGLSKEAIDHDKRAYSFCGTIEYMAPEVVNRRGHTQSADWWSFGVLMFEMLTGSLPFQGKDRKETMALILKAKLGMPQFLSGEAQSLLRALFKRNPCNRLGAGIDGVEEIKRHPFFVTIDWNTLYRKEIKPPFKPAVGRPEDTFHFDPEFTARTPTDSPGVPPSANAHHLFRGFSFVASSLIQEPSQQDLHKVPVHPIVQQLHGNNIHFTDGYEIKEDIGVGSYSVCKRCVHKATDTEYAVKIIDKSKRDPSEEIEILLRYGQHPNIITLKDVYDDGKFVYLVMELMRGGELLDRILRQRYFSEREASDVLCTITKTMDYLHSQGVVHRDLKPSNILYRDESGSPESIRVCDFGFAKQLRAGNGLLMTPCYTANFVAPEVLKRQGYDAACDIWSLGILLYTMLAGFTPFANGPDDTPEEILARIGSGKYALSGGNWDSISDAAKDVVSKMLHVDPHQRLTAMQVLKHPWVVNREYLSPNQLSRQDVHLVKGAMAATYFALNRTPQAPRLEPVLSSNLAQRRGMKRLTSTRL
Experimental: as §1

ABL = molecular target: T17, ABL (Homo sapiens, UniProt P00519); test: ProfilerPro Kinase Selectivity, ABL
T17 construct: purchased Caliper LifeSciences
Experimental: as §1

FGFR4 = molecular target: T18, FGFR4 (Homo sapiens, UniProt P22455); test: ProfilerPro Kinase Selectivity, FGFR4
T18 construct: purchased Caliper LifeSciences
Experimental: as §1

MARK4 = molecular target: T19, MARK4 (Homo sapiens, UniProt Q96L34); test: ProfilerPro Kinase Selectivity, MARK4
T19 construct: purchased Caliper LifeSciences
Experimental: as §1

RSK2 = molecular target: T20, RSK2 (Homo sapiens, UniProt P51812); test: ProfilerPro Kinase Selectivity, RSK2
T20 construct: purchased Caliper LifeSciences
Experimental: as §1

IKKE = molecular target: T21, IKKE (Homo sapiens, UniProt Q14164); test: ProfilerPro Kinase Selectivity, IKKE
T21 construct: purchased Caliper LifeSciences
Experimental: as §1

ABL1 E255K = molecular target: T22, ABL1 E255K (Homo sapiens, UniProt P00519, E255K); test: ProfilerPro Kinase Selectivity, ABL1 E255K
T22 construct: purchased Caliper LifeSciences
Experimental: as §1

DCAMKL1 = molecular target: T23, DCAMKL1 (Homo sapiens, UniProt O15075); test: ProfilerPro Kinase Selectivity, DCAMKL1
T23 construct: purchased Caliper LifeSciences
Experimental: as §1

GSK3B = molecular target: T24, GSK3B (Homo sapiens, UniProt P49841); test: ProfilerPro Kinase Selectivity, GSK3B
T24 construct: purchased Caliper LifeSciences
Experimental: as §1

CDK1/CYCB1 = molecular target: T25, CDK1/CYCB1 (Homo sapiens, UniProt P06493); test: ProfilerPro Kinase Selectivity, CDK1/CYCB1
T25 construct: purchased Caliper LifeSciences
Experimental: as §1

LOK = molecular target: T26, LOK (Homo sapiens, UniProt O94804); test: ProfilerPro Kinase Selectivity, LOK
T26 construct: purchased Caliper LifeSciences
Experimental: as §1

MER = molecular target: T27, MER (Homo sapiens, UniProt Q12866); test: ProfilerPro Kinase Selectivity, MER
T27 construct: purchased Caliper LifeSciences
Experimental: as §1

FGFR3 K650E = molecular target: T28, FGFR3 K650E (Homo sapiens, UniProt P22607, K650E); test: ProfilerPro Kinase Selectivity, FGFR3 K650E
T28 construct: purchased Caliper LifeSciences
Experimental: as §1

KIT T670I = molecular target: T29, KIT T670I (Homo sapiens, UniProt P10721, T670I); test: ProfilerPro Kinase Selectivity, KIT T670I
T29 construct: purchased Caliper LifeSciences
Experimental: as §1

BMX = molecular target: T30, BMX (Homo sapiens, UniProt P51813); test: ProfilerPro Kinase Selectivity, BMX
T30 construct: purchased Caliper LifeSciences
Experimental: as §1

LYNB = molecular target: T31, LYNB (Homo sapiens, UniProt P07948); test: ProfilerPro Kinase Selectivity, LYNB
T31 construct: purchased Caliper LifeSciences
Experimental: as §1

AKT2 = molecular target: T32, AKT2 (Homo sapiens, UniProt P31751); test: ProfilerPro Kinase Selectivity, AKT2
T32 construct: purchased Caliper LifeSciences
Experimental: as §1

P70S6K = molecular target: T33, P70S6K (Homo sapiens, UniProt P23443); test: ProfilerPro Kinase Selectivity, P70S6K
T33 construct: purchased Caliper LifeSciences
T33 sequence (P23443 whole entry): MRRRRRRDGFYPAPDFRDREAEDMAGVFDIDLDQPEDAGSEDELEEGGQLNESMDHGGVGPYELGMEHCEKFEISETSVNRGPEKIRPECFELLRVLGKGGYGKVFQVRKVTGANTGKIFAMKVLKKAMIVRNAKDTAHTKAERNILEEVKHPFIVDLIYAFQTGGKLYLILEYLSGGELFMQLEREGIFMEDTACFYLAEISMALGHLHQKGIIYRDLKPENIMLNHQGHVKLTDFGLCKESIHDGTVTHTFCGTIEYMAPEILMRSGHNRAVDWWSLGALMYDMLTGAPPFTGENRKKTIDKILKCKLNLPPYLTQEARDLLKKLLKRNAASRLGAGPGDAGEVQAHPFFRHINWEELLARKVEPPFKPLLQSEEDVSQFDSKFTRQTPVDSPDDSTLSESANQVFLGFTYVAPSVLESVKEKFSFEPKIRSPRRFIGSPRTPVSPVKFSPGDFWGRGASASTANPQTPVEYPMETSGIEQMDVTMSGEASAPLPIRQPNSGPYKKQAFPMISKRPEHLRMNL
Experimental: as §1

FGR = molecular target: T34, FGR (Homo sapiens, UniProt P09769); test: ProfilerPro Kinase Selectivity, FGR
T34 construct: purchased Caliper LifeSciences
Experimental: as §1

BRSK2 = molecular target: T35, BRSK2 (Homo sapiens, UniProt Q8IWQ3); test: ProfilerPro Kinase Selectivity, BRSK2
T35 construct: purchased Caliper LifeSciences
Experimental: as §1

MET M1250T = molecular target: T36, MET M1250T (Homo sapiens, UniProt P08581, M1250T); test: ProfilerPro Kinase Selectivity, MET M1250T
T36 construct: purchased Caliper LifeSciences
Experimental: as §1

CK1D = molecular target: T37, CK1D (Homo sapiens, UniProt P48730); test: ProfilerPro Kinase Selectivity, CK1D
T37 construct: purchased Caliper LifeSciences
Experimental: as §1

AURA = molecular target: T38, AURA (Homo sapiens, UniProt O14965); test: ProfilerPro Kinase Selectivity, AURA
T38 construct: purchased Caliper LifeSciences
Experimental: as §1

| Structure (SMILES) | inhibition at 10 µM (ABL Q252H) [%] | inhibition at 10 µM (GCK) [%] | inhibition at 10 µM (ABL1 G250E) [%] | inhibition at 10 µM (PRKCB1) [%] | inhibition at 10 µM (PKD1) [%] | inhibition at 10 µM (FGFR1) [%] | inhibition at 10 µM (EGFR T790M) [%] | inhibition at 10 µM (CLK2) [%] | inhibition at 10 µM (DYRK4) [%] | inhibition at 10 µM (PAK4) [%] | inhibition at 10 µM (PRKX) [%] | inhibition at 10 µM (CAMK4) [%] | inhibition at 10 µM (MAPKAPK2) [%] | inhibition at 10 µM (TRKC) [%] | inhibition at 10 µM (HCK) [%] | inhibition at 10 µM (RSK3) [%] | inhibition at 10 µM (ABL) [%] | inhibition at 10 µM (FGFR4) [%] | inhibition at 10 µM (MARK4) [%] | inhibition at 10 µM (RSK2) [%] | other results |
| --- | --- | --- | --- | --- | --- | --- | --- | --- | --- | --- | --- | --- | --- | --- | --- | --- | --- | --- | --- | --- | --- |
| CSc1sc(-c2cc[nH]n2)c2c1C(=O)CCC2 [Example 1, 3-(Methylsulfanyl)-1-(1H-pyrazol-3-yl)-6,7-dihydro-2-benzothiophen-4(5H)-one] | 16.9 | 6.3 | 5 | -5.1 | 5.5 | 1.9 | 1.8 | 31.3 | -1.1 | 6.1 | -0.6 | 20.1 | 4.1 | 10.3 | 12.5 | 9.4 | 12.7 | 5.9 | -9.4 | 5.5 | inhibition at 10 µM (IKKE): -1.5%; inhibition at 10 µM (ABL1 E255K): 2.8%; inhibition at 10 µM (DCAMKL1): -2.5%; inhibition at 10 µM (GSK3B): 5.4%; inhibition at 10 µM (CDK1/CYCB1): 5.3%; inhibition at 10 µM (LOK): 7.5%; inhibition at 10 µM (MER): 23.8%; inhibition at 10 µM (FGFR3 K650E): 3.7%; inhibition at 10 µM (KIT T670I): 10.6%; inhibition at 10 µM (BMX): -10.9%; inhibition at 10 µM (LYNB): 8.2%; inhibition at 10 µM (AKT2): -6.8%; inhibition at 10 µM (P70S6K): 5.7%; inhibition at 10 µM (FGR): -7.2%; inhibition at 10 µM (BRSK2): -1.7%; inhibition at 10 µM (MET M1250T): 5.1%; inhibition at 10 µM (CK1D): 44.6%; inhibition at 10 µM (AURA): 44% |
| CC1(C)CC(=O)c2c(SC3CCCC3)sc(-c3cc[nH]n3)c2C1 [Example 7, 3-(Cyclopentylsulfanyl)-6,6-dimethyl-1-(1H-pyrazol-3-yl)-6,7-dihydro-2-benzothiophen-4(5H)-one] | 3.9 | 11.8 | 6.4 | -3.9 | -10.6 | 7.4 | -1.9 | 1.3 | 0.4 | -8.9 | -6.6 | -1.5 | 2 | 0.5 | -1.1 | 2 | 1.9 | -0.1 | 11.6 | 3.5 | inhibition at 10 µM (IKKE): 1.3%; inhibition at 10 µM (ABL1 E255K): 7.5%; inhibition at 10 µM (DCAMKL1): -2.1%; inhibition at 10 µM (GSK3B): 0.5%; inhibition at 10 µM (CDK1/CYCB1): -6.7%; inhibition at 10 µM (LOK): -32.6%; inhibition at 10 µM (MER): 8%; inhibition at 10 µM (FGFR3 K650E): -4.2%; inhibition at 10 µM (KIT T670I): 3%; inhibition at 10 µM (BMX): -30.7%; inhibition at 10 µM (LYNB): -4.9%; inhibition at 10 µM (AKT2): -6.8%; inhibition at 10 µM (P70S6K): -4.8%; inhibition at 10 µM (FGR): -1.6%; inhibition at 10 µM (BRSK2): -11.1%; inhibition at 10 µM (MET M1250T): -0.3%; inhibition at 10 µM (CK1D): 12.9%; inhibition at 10 µM (AURA): 11% |
